Data reported in ChEMBL document CHEMBL5576150, “Synthesis and Biological Evaluation of Pyrazole-Pyrimidones as a New Class of Correctors of the Cystic Fibrosis Transmembrane Conductance Regulator (CFTR)” (J Med Chem, 2024).
pEC50: −log10 of the molar value. Blank lines part the entries; values can stand above or below the compound they belong to. The source made the active and inactive calls. The rule behind the calls is not given here.

Assays:
[1] = system: Cystic fibrosis transmembrane conductance regulator (Homo sapiens), P13569 [F508del]; assay: (§1) Corrector activity at 3xHA-tagged full-length human CFTR F508del mutant expressed in human CFBE41o- cells assessed as restoration of plasma membrane density of channel incubated for 24 hrs in presence of VX-809/N-(5-(4-fluorobenzyl)thiazol-2-yl)-2,5-dimethylfuran-3-carboxamide by ELISA; assay type: cell membranes; details: filed as activator, dose 10.0 µM
[2] = molecular target: Cystic fibrosis transmembrane conductance regulator (Homo sapiens, UniProt P13569, F508DEL); assay: as §1; assay type: cell membranes
[3] = system: Cystic fibrosis transmembrane conductance regulator (Homo sapiens), P13569 [F508del]; assay: Corrector activity at 3xHA-tagged full-length human CFTR F508del mutant expressed in human CFBE41o- cells assessed as functional rescue of channel by measuring anion transport measured after 24 hrs in presence of VX-809/N-(5-(4-fluorobenzyl)thiazol-2-yl)-2,5-dimethylfuran-3-carboxamide by halide-sensitive YFP quenching assay relative to combination of VX-809/N-(5-(4-fluorobenzyl)thiazol-2-yl)-2,5-dimethylfuran-3-carboxamide; assay type: cell-based; details: filed as activator
[4] = system: Cystic fibrosis transmembrane conductance regulator (Homo sapiens), P13569 [F508del]; assay: (§2) Corrector activity at 3xHA-tagged full-length human CFTR F508del mutant expressed in human CFBE41o- cells assessed as rescue of forskolin/VX-770-induced transepithelial short-circuit current measured after 24 hrs in presence of VX-809/N-(5-(4-fluorobenzyl)thiazol-2-yl)-2,5-dimethylfuran-3-carboxamide by electrophysiological method relative to wild-type CFTR activity; assay type: cell-based; details: filed as activator
[5] = system: Cystic fibrosis transmembrane conductance regulator (Homo sapiens), P13569 [F508del]; assay: Inhibition of activity of 3xHA-tagged full-length human CFTR F508del mutant expressed in human CFBE41o- cells in presence of VX-809/N-(5-(4-fluorobenzyl)thiazol-2-yl)-2,5-dimethylfuran-3-carboxamide; assay type: cell-based
[6] = system: Cystic fibrosis transmembrane conductance regulator (Homo sapiens), P13569 [F508del]; assay: Corrector activity at CFTR F508del mutant in patient-derived human HBE cells assessed as forskolin/VX-770-induced transepithelial short-circuit current in presence of VX-809/N-(5-(4-fluorobenzyl)thiazol-2-yl)-2,5-dimethylfuran-3-carboxamide by electrophysiological method (reference value: 16 %); assay type: cell-based; details: filed as activator
[7] = system: Cystic fibrosis transmembrane conductance regulator (Homo sapiens), P13569 [S13F]; assay: Corrector activity at 3xHA-tagged full-length human CFTR S13F mutant expressed in human CFBE41o- cells assessed as restoration of plasma membrane density of channel in presence of VX-809/N-(5-(4-fluorobenzyl)thiazol-2-yl)-2,5-dimethylfuran-3-carboxamide by ELISA; assay type: cell membranes; details: filed as activator
[8] = system: Cystic fibrosis transmembrane conductance regulator (Homo sapiens), P13569 [S492F]; assay: Corrector activity at 3xHA-tagged full-length human CFTR S492F mutant expressed in human CFBE41o- cells assessed as restoration of plasma membrane density of channel in presence of VX-809/N-(5-(4-fluorobenzyl)thiazol-2-yl)-2,5-dimethylfuran-3-carboxamide by ELISA; assay type: cell membranes; details: filed as activator
[9] = system: Cystic fibrosis transmembrane conductance regulator (Homo sapiens), P13569 [M1101K]; assay: Corrector activity at 3xHA-tagged full-length human CFTR M1101K mutant expressed in human CFBE41o- cells assessed as restoration of plasma membrane density of channel in presence of VX-809/N-(5-(4-fluorobenzyl)thiazol-2-yl)-2,5-dimethylfuran-3-carboxamide by ELISA relative to wild-type CFTR level; assay type: cell membranes; details: filed as activator
[10] = system: Cystic fibrosis transmembrane conductance regulator (Homo sapiens), P13569 [N1303K]; assay: Corrector activity at 3xHA-tagged full-length human CFTR N1303K mutant expressed in human CFBE41o- cells assessed as restoration of plasma membrane density of channel in presence of VX-809/N-(5-(4-fluorobenzyl)thiazol-2-yl)-2,5-dimethylfuran-3-carboxamide by ELISA relative to wild-type CFTR level; assay type: cell membranes; details: filed as activator
[11] = system: Cystic fibrosis transmembrane conductance regulator (Homo sapiens), P13569 [R560T]; assay: Corrector activity at 3xHA-tagged full-length human CFTR R560T mutant expressed in human CFBE41o- cells assessed as restoration of plasma membrane density of channel in presence of VX-809/N-(5-(4-fluorobenzyl)thiazol-2-yl)-2,5-dimethylfuran-3-carboxamide by ELISA; assay type: cell membranes
[12] = system: Cystic fibrosis transmembrane conductance regulator (Homo sapiens), P13569 [S13F]; assay: Corrector activity at 3xHA-tagged full-length human CFTR S13F mutant expressed in human CFBE41o- cells assessed as restoration of plasma membrane density of channel in presence of N-(5-(4-fluorobenzyl)thiazol-2-yl)-2,5-dimethylfuran-3-carboxamide incubated for 24 hrs by ELISA; assay type: cell membranes; details: filed as activator
[13] = system: Cystic fibrosis transmembrane conductance regulator (Homo sapiens), P13569 [S13F]; assay: Corrector activity at 3xHA-tagged full-length human CFTR S13F mutant expressed in human CFBE41o- cells assessed as restoration of plasma membrane density of channel in presence of VX-809 incubated for 24 hrs by ELISA; assay type: cell membranes; details: filed as activator
[14] = system: Cystic fibrosis transmembrane conductance regulator (Homo sapiens), P13569 [S13F]; assay: Corrector activity at 3xHA-tagged full-length human CFTR S13F mutant expressed in human CFBE41o- cells assessed as restoration of plasma membrane density of channel in presence of VX-661 incubated for 24 hrs by ELISA; assay type: cell membranes; details: filed as activator
[15] = system: Cystic fibrosis transmembrane conductance regulator (Homo sapiens), P13569 [S492F]; assay: Corrector activity at 3xHA-tagged full-length human CFTR S492F mutant expressed in human CFBE41o- cells assessed as restoration of plasma membrane density of channel in presence of N-(5-(4-fluorobenzyl)thiazol-2-yl)-2,5-dimethylfuran-3-carboxamide incubated for 24 hrs by ELISA; assay type: cell membranes; details: filed as activator
[16] = system: Cystic fibrosis transmembrane conductance regulator (Homo sapiens), P13569 [S492F]; assay: Corrector activity at 3xHA-tagged full-length human CFTR S492F mutant expressed in human CFBE41o- cells assessed as restoration of plasma membrane density of channel in presence of VX-809 incubated for 24 hrs by ELISA; assay type: cell membranes; details: filed as activator
[17] = system: Cystic fibrosis transmembrane conductance regulator (Homo sapiens), P13569 [S492F]; assay: Corrector activity at 3xHA-tagged full-length human CFTR S492F mutant expressed in human CFBE41o- cells assessed as restoration of plasma membrane density of channel in presence of VX-661 incubated for 24 hrs by ELISA; assay type: cell membranes; details: filed as activator
[18] = system: Cystic fibrosis transmembrane conductance regulator (Homo sapiens), P13569 [F508del]; assay: Corrector activity at 3xHA-tagged full-length human CFTR F508del mutant expressed in human CFBE41o- cells assessed as restoration of plasma membrane density of channel in presence of N-(5-(4-fluorobenzyl)thiazol-2-yl)-2,5-dimethylfuran-3-carboxamide incubated for 24 hrs by ELISA; assay type: cell membranes; details: filed as activator
[19] = system: Cystic fibrosis transmembrane conductance regulator (Homo sapiens), P13569 [F508del]; assay: Corrector activity at 3xHA-tagged full-length human CFTR F508del mutant expressed in human CFBE41o- cells assessed as restoration of plasma membrane density of channel incubated for 24 hrs in presence of VX-809 by ELISA; assay type: cell membranes; details: filed as activator
[20] = system: Cystic fibrosis transmembrane conductance regulator (Homo sapiens), P13569 [F508del]; assay: Corrector activity at 3xHA-tagged full-length human CFTR F508del mutant expressed in human CFBE41o- cells assessed as restoration of plasma membrane density of channel incubated for 24 hrs in presence of VX-661 by ELISA; assay type: cell membranes; details: filed as activator
[21] = system: Cystic fibrosis transmembrane conductance regulator (Homo sapiens), P13569 [S13F]; assay: Corrector activity at 3xHA-tagged full-length human CFTR S13F mutant expressed in human CFBE41o- cells assessed as restoration of plasma membrane density of channel incubated for 24 hrs in presence of VX-445 by ELISA; assay type: cell membranes
[22] = system: Cystic fibrosis transmembrane conductance regulator (Homo sapiens), P13569 [S492F]; assay: Corrector activity at 3xHA-tagged full-length human CFTR S492F mutant expressed in human CFBE41o- cells assessed as restoration of plasma membrane density of channel incubated for 24 hrs in presence of VX-445 by ELISA; assay type: cell membranes
[23] = system: Cystic fibrosis transmembrane conductance regulator (Homo sapiens), P13569 [F508del]; assay: Corrector activity at 3xHA-tagged full-length human CFTR F508del mutant expressed in human CFBE41o- cells assessed as restoration of plasma membrane density of channel incubated for 24 hrs in presence of VX-445 by ELISA; assay type: cell membranes
[24] = system: Cystic fibrosis transmembrane conductance regulator (Homo sapiens), P13569 [S13F]; assay: Corrector activity at 3xHA-tagged full-length human CFTR S13F mutant expressed in human CFBE41o- cells assessed as restoration of plasma membrane density of channel at 10 uM incubated for 24 hrs in presence of VX-445 by ELISA; assay type: cell membranes
[25] = system: Cystic fibrosis transmembrane conductance regulator (Homo sapiens), P13569 [S492F]; assay: Corrector activity at 3xHA-tagged full-length human CFTR S492F mutant expressed in human CFBE41o- cells assessed as restoration of plasma membrane density of channel at 10 uM incubated for 24 hrs in presence of VX-661/VX-445 by ELISA; assay type: cell membranes; details: filed as activator
[26] = system: Cystic fibrosis transmembrane conductance regulator (Homo sapiens), P13569 [F508del]; assay: Corrector activity at 3xHA-tagged full-length human CFTR F508del mutant expressed in human CFBE41o- cells assessed as restoration of plasma membrane density of channel at 10 uM incubated for 24 hrs in presence of VX-661/VX-445 by ELISA; assay type: cell membranes; details: filed as activator
[27] = system: Cystic fibrosis transmembrane conductance regulator (Homo sapiens), P13569 [S492F]; assay: as §2, with “S492F” for “F508del”, “current at 10 uM” for “current”, “method” for “method relative to wild-type CFTR activity”; assay type: cell-based; details: filed as activator
[28] = system: Cystic fibrosis transmembrane conductance regulator (Homo sapiens), P13569 [F508del]; assay: (§3) Corrector activity at 3xHA-tagged full-length human CFTR F508del mutant expressed in human CFBE41o- cells assessed as restoration of plasma membrane density of channel at 10 uM incubated for 24 hrs in presence of VX-809/1-(4-chlorophenyl)-N-(1-(4-methyl-6-oxo-1,6-dihydropyrimidin-2-yl)-3-(thiophen-2-yl)-1H-pyrazol-5-yl)cyclopentane-1-carboxamide by immunoblot analysis relative to wild-type CFTR level; assay type: cell membranes; details: filed as activator
[29] = system: Cystic fibrosis transmembrane conductance regulator (Homo sapiens), P13569 [F508del]; assay: as §3, with “densitometry” for “immunoblot analysis”; assay type: cell membranes; details: filed as activator
[30] = system: Cystic fibrosis transmembrane conductance regulator (Homo sapiens), P13569 [F508del]; assay: as §3, with “ELISA” for “immunoblot analysis”; assay type: cell membranes; details: filed as activator
[31] = system: Cystic fibrosis transmembrane conductance regulator (Homo sapiens), P13569 [F508del]; assay: Corrector activity at 3xHA-tagged full-length human CFTR F508del mutant expressed in human CFBE41o- cells assessed as restoration of channel function in presence of VX-809/1-(4-chlorophenyl)-N-(1-(4-methyl-6-oxo-1,6-dihydropyrimidin-2-yl)-3-(thiophen-2-yl)-1H-pyrazol-5-yl)cyclopentane-1-carboxamide relative to wild-type CFTR activity; assay type: cell-based; details: filed as activator

Cystic fibrosis transmembrane conductance regulator (Homo sapiens), P13569 [F508del], sequence (P13569 as listed by the source): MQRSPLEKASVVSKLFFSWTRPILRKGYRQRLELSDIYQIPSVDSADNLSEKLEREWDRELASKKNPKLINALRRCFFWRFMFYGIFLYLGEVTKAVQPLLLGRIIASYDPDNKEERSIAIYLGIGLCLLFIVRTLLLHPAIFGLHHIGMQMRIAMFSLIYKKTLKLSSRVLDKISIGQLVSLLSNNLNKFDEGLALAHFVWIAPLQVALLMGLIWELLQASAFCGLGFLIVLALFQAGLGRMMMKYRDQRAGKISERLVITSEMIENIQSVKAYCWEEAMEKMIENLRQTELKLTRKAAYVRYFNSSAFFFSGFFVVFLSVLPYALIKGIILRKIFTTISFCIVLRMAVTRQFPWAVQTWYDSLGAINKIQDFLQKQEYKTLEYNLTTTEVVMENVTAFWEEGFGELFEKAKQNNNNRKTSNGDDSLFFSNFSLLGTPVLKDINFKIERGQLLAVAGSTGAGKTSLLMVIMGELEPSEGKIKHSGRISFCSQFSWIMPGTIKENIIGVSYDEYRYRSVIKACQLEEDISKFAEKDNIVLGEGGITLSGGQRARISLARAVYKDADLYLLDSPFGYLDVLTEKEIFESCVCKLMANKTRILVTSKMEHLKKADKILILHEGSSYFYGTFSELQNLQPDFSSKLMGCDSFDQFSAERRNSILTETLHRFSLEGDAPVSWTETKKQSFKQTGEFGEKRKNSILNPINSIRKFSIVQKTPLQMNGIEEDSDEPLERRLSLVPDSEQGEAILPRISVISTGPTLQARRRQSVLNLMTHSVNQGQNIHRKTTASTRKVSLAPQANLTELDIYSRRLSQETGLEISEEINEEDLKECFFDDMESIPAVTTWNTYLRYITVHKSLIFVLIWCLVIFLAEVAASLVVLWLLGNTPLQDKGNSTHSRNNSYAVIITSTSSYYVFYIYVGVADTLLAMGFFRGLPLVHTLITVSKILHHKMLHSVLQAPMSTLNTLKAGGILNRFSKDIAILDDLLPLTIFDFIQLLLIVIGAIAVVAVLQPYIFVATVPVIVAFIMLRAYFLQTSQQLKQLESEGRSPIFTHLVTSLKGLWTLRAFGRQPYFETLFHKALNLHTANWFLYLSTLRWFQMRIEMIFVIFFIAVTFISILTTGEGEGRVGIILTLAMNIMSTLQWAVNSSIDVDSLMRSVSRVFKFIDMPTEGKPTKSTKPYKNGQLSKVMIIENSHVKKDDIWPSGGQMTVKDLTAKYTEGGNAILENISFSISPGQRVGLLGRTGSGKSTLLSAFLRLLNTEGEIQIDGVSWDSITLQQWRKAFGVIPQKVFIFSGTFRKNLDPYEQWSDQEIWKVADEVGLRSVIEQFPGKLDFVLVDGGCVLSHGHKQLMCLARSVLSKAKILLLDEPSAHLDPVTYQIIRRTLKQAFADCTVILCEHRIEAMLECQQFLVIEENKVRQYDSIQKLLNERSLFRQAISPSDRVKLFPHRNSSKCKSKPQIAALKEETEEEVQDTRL
Cystic fibrosis transmembrane conductance regulator (Homo sapiens), P13569 [S492F], sequence (P13569 whole entry S492F): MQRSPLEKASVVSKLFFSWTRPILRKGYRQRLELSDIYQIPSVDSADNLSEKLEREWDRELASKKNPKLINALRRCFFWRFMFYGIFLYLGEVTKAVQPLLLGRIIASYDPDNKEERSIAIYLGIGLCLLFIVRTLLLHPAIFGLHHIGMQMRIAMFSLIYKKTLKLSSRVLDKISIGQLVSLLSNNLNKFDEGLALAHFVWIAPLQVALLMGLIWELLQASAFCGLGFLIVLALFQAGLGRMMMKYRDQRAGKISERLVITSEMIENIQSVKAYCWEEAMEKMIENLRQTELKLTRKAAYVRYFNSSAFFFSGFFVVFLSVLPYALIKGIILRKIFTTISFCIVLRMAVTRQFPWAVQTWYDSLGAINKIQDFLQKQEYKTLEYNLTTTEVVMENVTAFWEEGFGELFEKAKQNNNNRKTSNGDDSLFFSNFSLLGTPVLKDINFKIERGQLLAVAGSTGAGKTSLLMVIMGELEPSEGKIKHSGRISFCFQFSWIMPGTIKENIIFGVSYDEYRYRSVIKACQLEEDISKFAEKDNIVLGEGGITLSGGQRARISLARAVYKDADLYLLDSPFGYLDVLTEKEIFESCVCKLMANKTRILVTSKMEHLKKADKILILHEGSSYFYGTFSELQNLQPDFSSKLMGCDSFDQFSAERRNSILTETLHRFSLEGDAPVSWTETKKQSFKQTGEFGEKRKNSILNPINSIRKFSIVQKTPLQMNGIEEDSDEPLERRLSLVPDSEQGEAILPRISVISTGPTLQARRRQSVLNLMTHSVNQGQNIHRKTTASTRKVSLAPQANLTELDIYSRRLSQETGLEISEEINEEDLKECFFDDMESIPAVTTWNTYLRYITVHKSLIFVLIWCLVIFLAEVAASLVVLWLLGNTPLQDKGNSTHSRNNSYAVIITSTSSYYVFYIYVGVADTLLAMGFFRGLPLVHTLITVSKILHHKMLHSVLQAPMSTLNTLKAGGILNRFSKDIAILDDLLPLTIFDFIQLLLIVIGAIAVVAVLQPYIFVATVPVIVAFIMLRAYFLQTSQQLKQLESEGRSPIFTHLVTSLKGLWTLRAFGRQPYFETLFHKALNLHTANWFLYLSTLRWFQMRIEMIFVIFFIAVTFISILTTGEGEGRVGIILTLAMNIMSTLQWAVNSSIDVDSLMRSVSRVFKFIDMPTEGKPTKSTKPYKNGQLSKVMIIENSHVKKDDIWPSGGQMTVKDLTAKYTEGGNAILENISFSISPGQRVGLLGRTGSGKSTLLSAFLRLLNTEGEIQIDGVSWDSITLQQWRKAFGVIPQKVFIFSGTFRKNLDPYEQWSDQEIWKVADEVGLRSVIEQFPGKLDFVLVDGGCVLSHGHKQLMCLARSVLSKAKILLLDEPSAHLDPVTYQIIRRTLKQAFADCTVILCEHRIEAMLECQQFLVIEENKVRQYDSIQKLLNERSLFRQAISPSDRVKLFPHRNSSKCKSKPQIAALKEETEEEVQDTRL
Cystic fibrosis transmembrane conductance regulator (Homo sapiens), P13569 [S13F], sequence (P13569 whole entry S13F): as the sequence (P13569 whole entry S492F) above, with S13F, F492S counted along it
Cystic fibrosis transmembrane conductance regulator (Homo sapiens), P13569 [N1303K], sequence (P13569 whole entry N1303K): as the sequence (P13569 whole entry S492F) above, with F492S, N1303K counted along it
Cystic fibrosis transmembrane conductance regulator (Homo sapiens), P13569 [M1101K], sequence (P13569 whole entry M1101K): as the sequence (P13569 whole entry S492F) above, with F492S, M1101K counted along it
Cystic fibrosis transmembrane conductance regulator, sequence (P13569 as listed by the source): as the sequence (P13569 as listed by the source) above
Cystic fibrosis transmembrane conductance regulator (Homo sapiens), P13569 [R560T], sequence (P13569 whole entry R560T): as the sequence (P13569 whole entry S492F) above, with F492S, R560T counted along it

- Activity [1]: Dose-Dependent Effect
- pEC50 [2]: 5.21
- Activity [3]: 250%
- Activity [4]: 80%
- inhibition [5]: inactive
- Activity [6]: 50%
- Activity [7]: Active
- Activity [8]: Active
- Activity [9]: 15%
- Activity [10]: 15%
- Activity [11]: inactive
- Activity [12]: Active
- Activity [13]: Active
- Activity [14]: Active
- Activity [15]: Active
- Activity [16]: Active
- Activity [17]: Active
- Activity [18]: Active
- Activity [19]: Active
- Activity [20]: Active
- Activity [21]: inactive
- Activity [22]: inactive
- Activity [23]: inactive
- Activity [24]: inactive
- Activity [25]: Active
- Activity [26]: Active
- Activity [27]: Active
SMILES: CC(C)(Oc1ccc(Cl)cc1)C(=O)Nc1cc(-c2cccs2)nn1-c1nc2c(c(=O)[nH]1)CCCC2

- Activity [28]: 100%
- Activity [29]: 100%
- Activity [30]: 100%
- Activity [31]: 50%
SMILES: Cc1cc(C(=O)Nc2ncc(Cc3ccc(F)cc3)s2)c(C)o1
